How the values were obtained:
Assay in all cases: relative viability (nuclei count vs DMSO), 5 days (fraction); higher = more cells survive
[1] = compound: COc1cc2nccc(Oc3ccc(NC(=O)C4(C(=O)Nc5ccc(F)cc5)CC4)cc3)c2cc1OC [Cabozantinib] + CC(C)C[C@H](NC(=O)[C@H](Cc1ccccc1)NC(=O)c1cnccn1)B(O)O [Bortezomib] (partner 0.002 µM)
Procedure, shortened: (§1)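 Lung cancer cell lines were seeded in 1536-well plates and dosed by pin tool the next day, with either a single drug or a fixed anchor-drug dose combined with five library-drug doses (not always all listed) spaced in √10 steps. Five days later, one step fixed the cells and stained their nuclei (final 0.05% Triton X-100, 1% formaldehyde, 1 ug/ml Hoechst), and nuclei were counted on 4× images. Relative viability is the nuclei count in treated wells divided by the count in vehicle wells, and each value is the median of duplicate plates.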

Kobe2602 + Lapatinib = compound: C1=CC(=CC=C1NC(=S)NNC2=C(C=C(C=C2[N+](=O)[O-])C(F)(F)F)[N+](=O)[O-])F [Kobe2602] + CS(=O)(=O)CCNCc1ccc(-c2ccc3ncnc(Nc4ccc(OCc5cccc(F)c5)c(Cl)c4)c3c2)o1 [Lapatinib] (partner 2 µM)
Procedure, shortened: as §1

Kobe2602 + Navitoclax = compound: C1=CC(=CC=C1NC(=S)NNC2=C(C=C(C=C2[N+](=O)[O-])C(F)(F)F)[N+](=O)[O-])F [Kobe2602] + CC1(C)CCC(c2ccc(Cl)cc2)=C(CN2CCN(c3ccc(C(=O)NS(=O)(=O)c4ccc(N[C@H](CCN5CCOCC5)CSc5ccccc5)c(S(=O)(=O)C(F)(F)F)c4)cc3)CC2)C1 [Navitoclax] (partner 0.5 µM)
Procedure, shortened: as §1

[2] = compound: COc1cc2nccc(Oc3ccc(NC(=O)C4(C(=O)Nc5ccc(F)cc5)CC4)cc3)c2cc1OC [Cabozantinib] + C[C@]1(O)C[C@@H](c2nc(-c3ccc4ccc(-c5ccccc5)nc4c3)c3c(N)nccn32)C1 [Linsitinib] (partner 1 µM)
Procedure, shortened: as §1

Cell Line	relative viability ([1]; first compound 0.02 µM)	relative viability ([1]; first compound 0.06325 µM)	relative viability ([1]; first compound 0.2 µM)	relative viability ([1]; first compound 0.6325 µM)	relative viability ([1]; first compound 2 µM)	relative viability (Kobe2602 + Lapatinib; first compound 0.2 µM)	relative viability (Kobe2602 + Lapatinib; first compound 0.6325 µM)	relative viability (Kobe2602 + Lapatinib; first compound 2 µM)	relative viability (Kobe2602 + Lapatinib; first compound 6.325 µM)	relative viability (Kobe2602 + Lapatinib; first compound 20 µM)	relative viability (Kobe2602 + Navitoclax; first compound 0.2 µM)	relative viability (Kobe2602 + Navitoclax; first compound 0.6325 µM)	relative viability (Kobe2602 + Navitoclax; first compound 2 µM)	relative viability (Kobe2602 + Navitoclax; first compound 6.325 µM)	relative viability (Kobe2602 + Navitoclax; first compound 20 µM)	relative viability ([2]; first compound 0.02 µM)	relative viability ([2]; first compound 0.06325 µM)	relative viability ([2]; first compound 0.2 µM)	relative viability ([2]; first compound 0.6325 µM)	relative viability ([2]; first compound 2 µM)
NCI-H1437	0.533	0.635	0.549	0.565	0.64	0.815	0.847	0.723	0.79	0.673	1.04	1.07	1.11	1.11	0.901	1.12	1.26	1.06	1.13	0.982
EKVX	0.996	1.19	0.942	1.1	1	0.207	0.223	0.221	0.184	0.267	0.926	0.926	0.955	0.88	0.9	0.955	1.11	0.806	0.989	1.09
NCI-H596	0.966	1.07	1.02	0.802	0.996	1.18	1.19	1.05	0.934	1.17	0.908	1.05	0.949	0.962	0.992	1.19	1.17	1.11	0.997	0.994
NCI-H1993	0.829	1.2	0.716	0.816	0.988	0.718	0.727	0.783	0.814	0.875	0.678	0.707	0.787	0.687	0.729	0.776	0.722	0.712	0.69	0.718
HCC-78	0.409	0.436	0.339	0.227	0.21	1.02	0.903	–	0.418	1.18	0.761	0.893	–	0.78	0.91	0.428	0.423	0.194	0.261	0.193
NCI-H2087	0.863	1.04	0.702	0.661	0.815	0.879	1.01	1.26	0.957	1.04	0.959	0.934	1.01	1.03	0.849	1.03	1	1.06	1.02	1
H3255	0.75	0.958	–	0.831	0.901	0.244	0.301	0.234	0.25	0.239	0.521	0.562	0.516	0.558	0.548	1.16	0.966	–	1.01	1.1
NCI-H2126	1.13	1.11	1.1	1.14	1.11	0.751	0.775	0.778	0.725	0.759	0.883	0.888	0.799	0.776	0.788	0.727	0.755	0.735	0.733	0.701
LC-2-ad	1.06	1.17	0.863	0.865	0.821	1.03	0.893	0.764	0.978	0.923	0.378	0.374	0.453	0.371	0.404	0.846	0.795	0.659	0.56	0.461
SW 1573	1.23	1.05	1.09	0.951	0.875	1.34	1.25	1.05	1.1	1.14	1.05	1.14	0.96	1.02	0.946	0.702	0.799	0.842	0.604	0.63
EBC-1	0.673	0.484	0.221	0.245	0.173	0.211	0.201	0.204	0.227	0.208	0.373	0.488	0.436	0.452	0.483	1.04	0.942	0.432	0.121	0.116
HCC-15	0.974	1.1	0.995	1.02	1.09	0.856	0.937	0.81	0.863	0.809	0.715	0.728	0.665	0.664	0.65	1	0.958	0.846	0.843	0.736
NCI-H1650	0.182	0.212	0.184	0.199	0.222	0.833	1.07	0.773	0.941	0.875	1.08	1.33	0.948	1.36	1.22	–	–	–	–	–
COR-L 105	0.799	0.999	–	0.702	0.837	0.369	0.381	0.379	0.38	0.401	0.525	0.756	0.786	0.909	0.784	0.945	1.04	–	0.937	0.839
NCI-H650	0.691	0.998	0.861	0.737	0.627	0.852	1.07	1.19	1.04	0.99	–	–	–	–	–	0.846	1.02	1.05	0.971	0.774
LXF-289	1.09	1.03	1.01	0.956	1	0.872	0.891	0.88	0.874	0.873	0.95	0.959	0.873	0.941	0.923	1.02	0.966	0.971	0.983	0.94
NCI-H1703	0.243	0.237	0.235	0.194	0.154	0.903	0.975	0.925	0.982	0.694	1.44	1.24	1.12	0.893	1.06	0.601	0.35	0.287	0.165	0.146
SK-MES-1	–	–	–	–	–	0.465	0.488	0.427	0.436	0.464	1.14	1.23	1.09	1.19	1.23	1.12	1.1	0.988	1.12	1.06
LOU-NH91	0.484	0.55	0.457	0.508	0.551	0.706	0.774	0.718	0.801	0.805	0.702	0.816	0.644	0.697	0.68	0.928	1.09	0.537	0.939	0.95

Cell Line	relative viability ([1]; first compound 0.02 µM)	relative viability ([1]; first compound 0.06325 µM)	relative viability ([1]; first compound 0.2 µM)	relative viability ([1]; first compound 0.6325 µM)	relative viability ([1]; first compound 2 µM)	relative viability (Kobe2602 + Lapatinib; first compound 0.2 µM)	relative viability (Kobe2602 + Lapatinib; first compound 0.6325 µM)	relative viability (Kobe2602 + Lapatinib; first compound 2 µM)	relative viability (Kobe2602 + Lapatinib; first compound 6.325 µM)	relative viability (Kobe2602 + Lapatinib; first compound 20 µM)	relative viability (Kobe2602 + Navitoclax; first compound 0.2 µM)	relative viability (Kobe2602 + Navitoclax; first compound 0.6325 µM)	relative viability (Kobe2602 + Navitoclax; first compound 2 µM)	relative viability (Kobe2602 + Navitoclax; first compound 6.325 µM)	relative viability (Kobe2602 + Navitoclax; first compound 20 µM)	relative viability ([2]; first compound 0.02 µM)	relative viability ([2]; first compound 0.06325 µM)	relative viability ([2]; first compound 0.2 µM)	relative viability ([2]; first compound 0.6325 µM)	relative viability ([2]; first compound 2 µM)
NCI-H1355	1.05	1.29	1.12	1.23	1.18	0.942	1.01	0.992	0.876	0.929	0.887	0.94	0.945	0.901	0.902	0.827	0.855	0.799	0.806	0.697
NCI-H460	1.38	1.15	1.12	1.13	1.13	0.962	0.983	1.06	1	0.999	1.12	1.16	1.19	1.1	1.06	0.941	0.89	0.83	0.805	0.797
NCI-H1793	–	–	–	–	–	1.03	0.663	0.621	0.623	0.78	0.528	0.445	0.415	0.413	0.459	1.21	1.01	0.7	0.814	0.65
NCI-H2023	0.893	0.957	0.819	0.889	1.03	0.833	0.914	0.811	0.815	0.739	0.976	1.11	0.892	0.927	0.917	0.637	0.76	0.465	0.459	0.316
NCI-H1666	0.87	0.934	0.879	1.02	0.875	0.639	0.659	–	0.468	0.592	1.02	0.982	–	0.77	0.924	1.05	0.819	0.847	0.811	0.925
HARA	1.18	1.19	0.975	1.18	1.11	0.677	0.844	0.689	0.697	0.814	1.22	1.19	1.16	1.06	1.11	1.03	1.06	0.874	0.994	0.986
NCI-H358	–	–	–	–	–	0.448	0.485	0.451	0.451	0.452	–	–	–	–	–	0.833	0.868	0.851	0.735	0.736
ChaGo-K-1	0.829	1.25	0.909	0.804	1.04	–	–	–	–	–	1.12	1.26	1.02	1.05	0.933	–	–	–	–	–
NCI-H1563	0.92	0.875	0.904	0.824	1.08	0.912	1.37	1.03	1.04	1.02	–	–	–	–	–	0.853	1.3	1.37	1.11	0.957
NCI-H441	–	0.494	0.776	0.76	0.385	–	–	–	–	–	0.602	0.807	0.601	0.575	0.679	0.53	0.721	0.686	0.46	0.418
ABC-1	0.263	0.263	0.294	0.351	0.279	1.5	1.24	1.11	1.22	1.27	–	–	–	–	–	0.719	0.816	0.81	0.87	0.754
NCI-H1395	–	–	–	–	–	0.925	1.04	1.01	1.18	1.12	1.07	1.09	1.12	1.11	1.33	1.25	1.27	1	1.13	0.958
NCI-H661	0.799	0.855	0.915	0.683	0.799	0.627	0.601	0.537	0.434	0.567	–	–	–	–	–	0.621	0.503	0.557	0.455	0.413
NCI-H1944	–	–	–	–	–	0.878	0.944	0.837	0.857	0.787	1.02	1.04	1.09	1.08	1.13	–	1.18	1.09	1.12	1.07
NCI-H2170	–	–	–	–	–	0.282	0.261	0.262	0.272	0.303	0.65	0.597	0.56	0.57	0.622	–	–	–	–	–
A549	–	–	–	–	–	0.922	0.978	0.88	1.05	0.881	1.26	1.21	1.22	1.11	1.17	0.621	0.641	0.481	0.534	0.373
LCLC-103H	1.09	1.12	1.14	1.03	1.03	–	–	–	–	–	–	–	–	–	–	1.21	1.01	1.07	0.986	1.05
LK-2	–	–	–	–	–	1.02	0.857	0.961	0.83	1.09	0.899	1.06	0.815	0.825	0.891	0.724	0.73	0.619	0.633	0.716
